# Measured values as given in patent US20040248950A1, “Apo ai expression accelerating agent” (priority 2004, published 2004).
# What was measured:
# [1] = tested on: promoter region of the gene encoding human apoAI; experiment: Activity to enhance the production of human apoAI: apoAI promoter-luciferase reporter assay in HepG2 cells; type: cell-based; settings: minimum effective dose: concentration that intensified luciferase activity twice compared to control, 24 hours incubation, 0 to 10 μg/mL, read-out: MED
# Procedure: Activity to Enhance the Production of Human apoAI
# The promoter region of the gene encoding human apoAI was isolated and ligated upstream the structure gene of firefly luciferase to construct a reporter plasmid. The reporter plasmid and a marker plasmid conferring the neomycin resistance were co-infected to cell lines derived from human hepatoma, HepG2 cells, and the cell lines were incubated in a selection medium comprising DMEM medium containing 10% fetal calf serum supplemented with G418 (Final concentration: 0.7 mg/mL, Gibco) to give established strains that stably express the reporter molecule. The strains were seeded to a 96-well culture plates at a density of 50,000 cells per well, and incubated for 48 hours at 37° C. under 5% carbon dioxide. Then, a solution of the compounds according to the invention in DMSO was added to the wells at a final concentration of 0 to 10 μg/mL. After further incubation for 24 hours, the cells were added with a luciferase assay reagent (Piccagene LT 7.5 registered trade mark, Toyo Ink, KK), and the luciferase activity was determined using a luminometer (MicroBetaTM TRILUX, 1 sec/well, Wallac). The concentration of the compounds, which intensified the luciferase activity twice compared to that of control (DMSO without any compound of the invention added) was set as the minimal effective dose (MED).
SMILES,EC (2-fold luciferase activity) [1],melting point
c1ccc(Nc2nc(-c3ccccc3)ns2)cc1 [Compound 124TD35-6],0.93 µM,–
c1ccc(-c2cc(-c3ccccn3)[nH]n2)nc1 [PZ35-5],1.5 µM,–
Cc1ccc(-n2nnc(-c3ccc(Cl)cc3)n2)cc1 [TZ-1],0.33 µM,–
CSc1ccc(-c2nnc(-c3ccccc3)o2)cc1 [Compound 134OD25-14],0.56 µM,120 to 122 °C
Cc1ccc(-n2nnc(-c3ccccc3)n2)cc1 [TZ-3],0.2 µM,–
"COc1ccc(-c2nc(-c3ccccc3)no2)cc1 [Compound 124OD35-12, 5-(4-Methoxyphenyl)-3-phenyl-1,2,4-oxadiazole]",0.07 µM,–
"COc1cccc(-c2cc(-c3ccoc3)on2)c1 [IX35-9, 5-(Furan-3-yl)-3-(3-methoxyphenyl)-isoxazole]",0.53 µM,36 to 37 °C
Cc1ccc(-c2nnn(-c3ccc(Cl)cc3)n2)cc1 [TZ-2],0.42 µM,–
COc1ccc(-c2nc(-c3ccccc3)co2)cc1 [OX24-5],0.32 µM,–
COc1ccc(-c2nc(-c3ccncc3)no2)cc1 [Compound 124OD35-13],0.7 µM,–
CC(C)Oc1cccc(-c2nnc(-c3ccoc3)s2)c1 [Compound 134TD25-4],0.58 µM,–
c1ccc(-c2nnc(-c3cc4ccccc4o3)o2)cc1 [Compound 134OD25-28],1.1 µM,148 to 149 °C
Cc1ccc(-c2csc(-c3ccccc3)n2)cc1 [TZ24-3],0.45 µM,–
"C(=C\c1nnc(-c2ccccc2)o1)/c1ccco1 [Compound 134OD25-23, 2-[2-(2-Furyl)vinyl]-5-[1,3,4]-oxadiazole]",0.82 µM,127 to 130 °C
c1ccc(-c2coc(-c3ccccc3)n2)cc1 [OX24-8],2.9 µM,–
COc1ccc(-c2nc(-c3ccccn3)cs2)cc1 [TZ24-11],1.2 µM,–

SMILES,EC (2-fold luciferase activity) [1],melting point
Clc1ccc(-c2nnn(-c3ccc(Cl)cc3)n2)cc1 [TZ-4],0.53 µM,–
c1ccc(-c2cc(-c3ccccc3)on2)cc1 [IX35-1],0.75 µM,–
"COc1ccc(-c2nc(-c3ccccc3)cs2)cc1 [TZ24-5, 2-(4-Methoxyphenyl)-4-phenylthiazole]",3.7 µM,–
"COc1ccc(-c2nc(-c3ccco3)cs2)cc1 [TZ24-6, 4-(2-Furyl)-2-(4-methoxyphenyl)thiazole]",1.2 µM,–
"COc1ccc(-c2cc(-c3ccc(OC)cc3)n(C)n2)cc1 [PZ35-4, 3,5-Di(4-methoxyphenyl)-1-methylpyrazole]",0.41 µM,–
COc1cccc(-c2nnc(N3CCOCC3)s2)c1 [Compound 134TD25-1],0.89 µM,–
c1ccc(-c2nc(-c3ccc(-c4csnn4)cc3)no2)cc1 [Compound 124OD35-15],0.18 µM,–
CC(C)Oc1cccc(-c2nnc(-c3ccoc3)o2)c1 [Compound 134OD25-34],1.5 µM,–
"Cc1cccc(-c2nnc(-c3cccc(C)c3)o2)c1 [Compound 134OD25-40, 2,5-Bis (3-tolyl)-1,3,4-oxadiazole]",0.17 µM,82 to 83 °C
"CN(C)c1ccc(-c2nnc(-c3ccccc3)o2)cc1 [Compound 134OD25-15, 2-(4-Dimethylaminophenyl)-5-phenyl-1,3,4-oxadiazole]",0.27 µM,135 to 140 °C
"COc1cccc(-c2nnc(-c3ccoc3)o2)c1 [Compound 134OD25-32, 2-(3-Furyl)-5-(3-methoxyphenyl)-[1,3,4]-oxadiazole]",2.8 µM,70 to 71 °C
COc1ccc(-n2nnc(-c3ccccc3)n2)cc1 [TZ-7],0.22 µM,–
"Cc1ccc(-c2nnc(-c3ccco3)s2)cc1 [Compound 134TD25-5, 2-(2-Furyl)-5-p-tolyl-[1,3,4]-thiadiazole]",0.98 µM,110 to 113 °C
"c1ccc(-c2nnc(-c3ccccn3)o2)cc1 [Compound 134OD25-46, 2-(2-Pyridyl)-5-phenyl-1,3,4-oxadiazole]",0.37 µM,–
c1ccc(-c2cn(-c3ccccc3)nn2)cc1 [Compound 123TA14-2],0.59 µM,–
c1ccc(-c2ccc(-c3ccccc3)o2)cc1 [Compound F25-10],2.5 µM,–
